The nature of data set [1]: Permeation across porin-deficient E. coli BL21 DE3 Omp8 OMV-derived membrane model. To be noted: standard permeation assay, 200 × 10^−6 M. The procedure: (§1) 30 µL of the OMV or liposome suspension were given on top of membrane filters of a 96‐well filter plate (MultiScreen 96‐well filter plates with 0.4 µm PCTE membrane). Afterwards, filters were dried at 37°C inside a Memmert UF55 universal oven (fan at 100%). This process was repeated another two times. A six‐fold coating procedure was only followed for SEM‐imaging purposes. For permeation studies, the obtained coatings were covered with 40 µl of 0.5% w/v agarose solution using a direct diplacement pipette. Prior to permeation studies, the bottom of the coated filter was also coated with a thin film of 0.5% w/v agarose using a small brush.
(§2) Coated wells were incubated on the apical and basolateral side for 30 min with PBS (pH 7.4) at 37°C while shaken at 180 rpm. After incubation, 230 µL of pre‐warmed 200 × 10^−6 M antibiotic donor solution (37°C) replaced the PBS in the respective donor wells, while 30 µL were immediately removed and diluted 1:10. The absorbance of these dilutions was measured in a receiver plate using a Tecan Infinite 200 PRO (Tecan Trading AG, Maennedorf, Switzerland) plate reader. (Table S1, Supporting Information) 300 µL of fresh PBS were given into the acceptor wells of the receiver plate followed by absorbance measurements. Donor and acceptor plates were reassembled, incubated, and disassembled after 10, 20, 30, 45, 60, 90, and 120 min to measure the absorbance in the acceptor wells.

A short description of data set [2]: Impact of agarose gel and vesicle coating on compound permeation. To be noted: P app; 0.5% w/v agarose gel; Figure 7. The protocol:
as §1, §2

Data set [3] can be described thus: Membrane permeabilization experiment on OMV-derived membrane. In kind it is in vitro ADME, Escherichia coli. To be noted: for effect of membrane-perturbating agent on the OMV-derived model: permeability of fusidic acid or fluorescein as readout. The procedure: Experiments were conducted on OMVs of E. coli BL21 DE3 Omp8 as stated above with some modifications. […] After 30 min, solutions were removed and the standard protocol was followed employing 200 × 10^−6 M fusidic acid solution and sampling after 5, 10, 15, 20, 25, 30, 45, and 60 min. The quantification was done via LC–MS/MS.
(§3) Afterward 240 µL of 10 × 10^−6 M fluorescein solution in PBS (pH 7.4) was added and 40 µL samples were drawn after 5, 10, 15, 20, 25, 30, 45, and 60 min and diluted 1 in 5 prior to fluorimetric quantification (λ ex = 485 nm, λ em = 530 nm).

The nature of data set [4]: Membrane permeabilization experiment on bacteriomimetic liposome-derived model. It counts as in vitro ADME. To be noted: fluorescein 10 × 10^−6 M after 30 min incubation with 83.1 × 10^−6 M PMB vs PBS. The protocol:
as §3

Data set [5] in a line: Porin-blocking experiment with spermine on porin-deficient membrane model. To be noted: 15 × 10^−6 M norfloxacin, no spermine.
Description: (§4) Experiments were performed on OMVs of E. coli strains BL21 DE3 and BL21 DE3 Omp8. The procedure followed the standard protocol for permeability studies with some modifications. The membranes were incubated on both sides for 30 min either with 140 × 10^−3 M spermine solution in PBS (pH7.4) or blank PBS. […] Samples of 40 µL were taken after 5, 10, 15, 20, 25, and 30 min and analyzed by LC–MS/MS.
(§5) An Accela UHPLC System‐Coupled TSQ Quantum Access Max tandem quadrupole mass spectrometer (both from Thermo Fisher Scientific, Waltham, MA, USA) was employed. The entire system was operated via Xcalibur 219 software (Thermo Fisher Scientific, Waltham, MA, USA). The detection of the compounds in the MS happened after heated electrospray ionization (H‐ESI) in positive ion mode. The chromatographic analysis was performed with a binary solvent mixture using optionally acetonitrile + 0.1% formic acid (A), MilliQ‐water + 0.1% formic acid (B), methanol + 0.1% formic acid (C), or ammonium formate buffer (10 × 10^−3 M, pH 3, D). […]
(§6) Raw data obtained from the respective analytical readouts of transport studies were converted to their corresponding concentration via external calibration. […]
(§7) The apparent permeability coefficient (P app) was calculated according to the following formula: (2) Pappcm∗s^−1=J/c0 where c 0 is the initial donor concentration (µg cm^− ^3) and J (µg cm^− ^2*s) the compound flux.
The nature of data set [6]: Porin-blocking experiment with spermine on porin-containing membrane model. To be noted: 15 × 10^−6 M norfloxacin, 140 × 10^−3 M spermine; Figure 10B.
Description: as §4, §5, §6, §7
For data set [7] the following is noted: not told. The procedure: as §1
Coated wells were incubated on the apical and basolateral side for 30 min with PBS (pH 7.4) at 37°C while shaken at 180 rpm. […] The absorbance of these dilutions was measured in a receiver plate using a Tecan Infinite 200 PRO (Tecan Trading AG, Maennedorf, Switzerland) plate reader. (Table S1, Supporting Information) 300 µL of fresh PBS were given into the acceptor wells of the receiver plate followed by absorbance measurements. Donor and acceptor plates were reassembled, incubated, and disassembled after 10, 20, 30, 45, 60, 90, and 120 min to measure the absorbance in the acceptor wells.

The nature of data set [8]: Comparison of P app among four vesicle-derived membrane models. To be noted: 200 × 10^−6 M; Figure 11. It counts as in vitro ADME. From the text: This process was repeated another two times.

Take `CN(C)[C@@H]1C(O)=C(C(N)=O)C(=O)[C@@]2(O)C(O)=C3C(=O)c4c(O)cccc4[C@@](C)(O)[C@H]3C[C@@H]12` [tetracycline]: in data set [1], the “permeability compared with the porin-containing BL21 DE3 OMV-derived model” value is “did not lead to a significant drop of permeation”. In addition, the “permeability with the vesicle coating compared to pure agarose gel coating” value in data set [2] is recorded as “significantly lower”. Take `CC(=O)O[C@H]1C[C@@]2(C)[C@@H](C[C@@H](O)[C@H]3[C@@]4(C)CC[C@@H](O)[C@@H](C)[C@@H]4CC[C@@]32C)/C1=C(\CCC=C(C)C)C(=O)O` [Fusidic acid]: in data set [3] (fusidic acid 200 × 10^−6 M after 30 min incubation with 103.8 × 10^−6 M PMBN vs PBS), the “change in permeability after membrane-perturbating agent” value was “none of the membrane‐perturbating agents caused significant changes”. For PMB nonapeptide [PMBN], in data set [3], the “effect of membrane-perturbating agent on the OMV-derived model” value was “lack of effect”. With `O=C(N[C@H](CO)[C@H](O)c1ccc([N+](=O)[O-])cc1)C(Cl)Cl` [chloramphenicol], in data set [1], the “permeability compared with the porin-containing BL21 DE3 OMV-derived model” value is “did not lead to a significant drop of permeation”. On to `O=C1OC2(c3ccc(O)cc3Oc3cc(O)ccc32)c2ccccc21` [fluorescein], for which the “change in permeability after membrane-perturbating agent” value in data set [3] (fluorescein 10 × 10^−6 M after 30 min incubation with 83.1 × 10^−6 M PMB vs PBS) is given as “none of the membrane‐perturbating agents caused significant changes”. Besides, the “permeation after treatment with PMB” value in data set [4] was “permeated significantly slower”. For Polymyxin B [PMB], the “effect of membrane-perturbating agent on the OMV-derived model” value in data set [3] is recorded as “lack of effect”. `CCn1cc(C(=O)O)c(=O)c2cc(F)c(N3CCNCC3)cc21` [norfloxacin]: the “permeability compared with the porin-containing BL21 DE3 OMV-derived model” value in data set [1] is “lower”. Further, the “permeability compared with the porin-containing model” value in data set [5] was “significantly decreased permeability”. Moreover, in data set [6], the “permeability coefficients in presence vs absence of spermine” value is given as “significantly different”. Take `CCn1cc(C(=O)O)c(=O)c2ccc(C)nc21` [nalidixic acid]: the “permeability across the eukaryotic membrane model compared with the other models” value in data set [7] is “increased”. In addition, the “difference in permeability throughout the OMV- and the bacteriomimetic liposome-based model” value in data set [8] is “no significant difference”. Regarding `CO[C@H]1/C=C/O[C@@]2(C)Oc3c(C)c(O)c4c(O)c(c(/C=N/N5CCN(C)CC5)c(O)c4c3C2=O)NC(=O)/C(C)=C\C=C\[C@H](C)[C@H](O)[C@@H](C)[C@@H](O)[C@@H](C)[C@H](OC(C)=O)[C@@H]1C` [rifampicin], in data set [7], the “permeability across the eukaryotic membrane model compared with the other models” value is given as “comparable permeability”. Also, in data set [2], the “permeability with the vesicle coating compared to pure agarose gel coating” value is on record as “significantly lower”. The “difference in permeability throughout the OMV- and the bacteriomimetic liposome-based model” value in data set [8] is “no significant difference”. Consider `CO[C@@H]1[C@@H](OC(N)=O)[C@@H](O)[C@H](Oc2ccc3c(O)c(NC(=O)c4ccc(O)c(CC=C(C)C)c4)c(=O)oc3c2C)OC1(C)C` [novobiocin], for which the “permeability with the vesicle coating compared to pure agarose gel coating” value in data set [2] is given as “significantly lower”. Take `CN[C@H](CC(C)C)C(=O)N[C@H]1C(=O)N[C@@H](CC(N)=O)C(=O)N[C@H]2C(=O)N[C@H]3C(=O)N[C@H](C(=O)N[C@H](C(=O)O)c4cc(O)cc(O)c4-c4cc3ccc4O)[C@H](O)c3ccc(c(Cl)c3)Oc3cc2cc(c3O[C@@H]2O[C@H](CO)[C@@H](O)[C@H](O)[C@H]2O[C@H]2C[C@](C)(N)[C@H](O)[C@H](C)O2)Oc2ccc(cc2Cl)[C@H]1O` [vancomycin]: in data set [8], the “trend of permeability the fewer outer membrane features the model has” value is recorded as “gradual decrease of permeability”.

Source of the values: publication PMC11468809, “An Outer Membrane Vesicle‐Based Permeation Assay (OMPA) for Assessing Bacterial Bioavailability” (Advanced Healthcare Materials, 2021).
